The NIST ThermoML archive (doi:10.1021/je200038n)

Columns and labels:
[1] = wn = mass fraction of the nth substance listed; settings: 3000 kPa, Liquid; for mass density: Vibrating tube method; for viscosity: Moving piston method
[2] = molar heat capacity at constant pressure; wn = mass fraction of the nth substance listed; settings: 3000 kPa, Liquid, Flow calorimetry

N#C[S-].[Na+] [sodium thiocyanate] + N
Settings	mass density [kg/m3]	molar heat capacity at constant pressure [J/K/mol]	viscosity [mPa·s]
[1], 269.4 K, w2 = 0.8921	707.7	–	–
[1], 269.8 K, w2 = 0.8921	–	–	0.27
[1], 270.4 K, w2 = 0.614	896.5	–	–
[1], 270.4 K, w2 = 0.6824	850	–	–
[1], 270.5 K, w2 = 0.4998	965.7	–	–
[1], 270.5 K, w2 = 0.797	772.7	–	–
[1], 270.6 K, w2 = 0.614	–	–	1.41
[1], 270.6 K, w2 = 0.6824	–	–	0.82
[1], 270.8 K, w2 = 0.4998	–	–	3.47
[1], 270.8 K, w2 = 0.797	–	–	0.44
[1], 274.8 K, w2 = 0.614	892.6	–	–
[1], 274.8 K, w2 = 0.797	767.4	–	–
[1], 274.9 K, w2 = 0.614	–	–	1.27
[1], 274.9 K, w2 = 0.6824	848	–	0.77
[1], 275 K, w2 = 0.4998	962.2	–	3.08
[1], 275 K, w2 = 0.797	–	–	0.4
[1], 275.2 K, w2 = 0.8921	699.9	–	–
[1], 275.4 K, w2 = 0.8921	–	–	0.25
[1], 279.3 K, w2 = 0.6824	844	–	–
[1], 279.4 K, w2 = 0.614	888.8	–	1.14
[1], 279.4 K, w2 = 0.6824	–	–	0.7
[1], 279.4 K, w2 = 0.797	761.7	–	0.37
[1], 279.5 K, w2 = 0.4998	959.3	–	2.75
[1], 283.8 K, w2 = 0.6824	839	–	–
[1], 283.9 K, w2 = 0.797	756.4	–	–
[1], 284 K, w2 = 0.614	884.9	–	1.06
[1], 284 K, w2 = 0.6824	–	–	0.65
[1], 284.1 K, w2 = 0.4998	955.9	–	2.43
[1], 284.1 K, w2 = 0.797	–	–	0.35
[1], 284.2 K, w2 = 0.8921	686.6	–	–
[1], 284.3 K, w2 = 0.8921	–	–	0.22
[1], 288.6 K, w2 = 0.614	881.6	–	–
[1], 288.6 K, w2 = 0.6824	834	–	–
[1], 288.6 K, w2 = 0.797	750.7	–	–
[1], 288.7 K, w2 = 0.4998	952.2	–	2.2
[1], 288.7 K, w2 = 0.6824	–	–	0.61
[1], 288.7 K, w2 = 0.797	–	–	0.33
[1], 293.3 K, w2 = 0.614	878.3	–	–
[1], 293.3 K, w2 = 0.6824	831	–	0.57
[1], 293.4 K, w2 = 0.4998	948.2	–	1.95
[1], 293.4 K, w2 = 0.614	–	–	0.89
[1], 293.4 K, w2 = 0.797	745.1	–	0.31
[1], 293.5 K, w2 = 0.8921	674	–	0.2
[1], 298 K, w2 = 0.614	–	–	0.83
[1], 298 K, w2 = 0.6824	828	–	0.52
[1], 298.1 K, w2 = 0.4998	–	–	1.73
[1], 298.1 K, w2 = 0.614	875.8	–	–
[1], 298.2 K, w2 = 0.4998	944.6	–	–
[1], 302.7 K, w2 = 0.797	–	–	0.28
[1], 302.8 K, w2 = 0.614	870	–	0.76
[1], 302.8 K, w2 = 0.6824	–	–	0.49
[1], 302.8 K, w2 = 0.8921	–	–	0.18
[1], 302.9 K, w2 = 0.4998	–	–	1.57
[1], 302.9 K, w2 = 0.6824	821	–	–
[1], 302.9 K, w2 = 0.797	734.7	–	–
[1], 303 K, w2 = 0.4998	941	–	–
[1], 303 K, w2 = 0.8921	660.5	–	–
[1], 307.5 K, w2 = 0.614	–	–	0.71
[1], 307.5 K, w2 = 0.6824	–	–	0.46
[1], 307.5 K, w2 = 0.797	–	–	0.26
[1], 307.6 K, w2 = 0.4998	–	–	1.41
[1], 307.6 K, w2 = 0.614	866.2	–	–
[1], 307.6 K, w2 = 0.6824	817	–	–
[1], 307.6 K, w2 = 0.797	729.5	–	–
[1], 307.7 K, w2 = 0.4998	937.1	–	–
[1], 312.2 K, w2 = 0.6824	–	–	0.43
[1], 312.2 K, w2 = 0.797	–	–	0.24
[1], 312.2 K, w2 = 0.8921	–	–	0.16
[1], 312.3 K, w2 = 0.4998	–	–	1.27
[1], 312.3 K, w2 = 0.614	–	–	0.66
[1], 312.3 K, w2 = 0.6824	811	–	–
[1], 312.4 K, w2 = 0.4998	933.3	–	–
[1], 312.4 K, w2 = 0.614	862.3	–	–
[1], 312.4 K, w2 = 0.797	724.2	–	–
[1], 312.4 K, w2 = 0.8921	648.1	–	–
[1], 316.8 K, w2 = 0.797	–	–	0.23
[1], 317 K, w2 = 0.614	857.4	–	0.62
[1], 317 K, w2 = 0.6824	–	–	0.4
[1], 317.1 K, w2 = 0.4998	–	–	1.15
[1], 317.1 K, w2 = 0.797	718.9	–	–
[1], 317.2 K, w2 = 0.4998	929.3	–	–
[1], 317.2 K, w2 = 0.6824	807	–	–
[1], 321.5 K, w2 = 0.797	–	–	0.22
[1], 321.6 K, w2 = 0.8921	–	–	0.15
[1], 321.7 K, w2 = 0.614	–	–	0.57
[1], 321.7 K, w2 = 0.6824	–	–	0.38
[1], 321.8 K, w2 = 0.4998	–	–	1.06
[1], 321.8 K, w2 = 0.614	852.4	–	–
[1], 321.8 K, w2 = 0.797	713.6	–	–
[1], 321.9 K, w2 = 0.4998	925.5	–	–
[1], 321.9 K, w2 = 0.6824	800.5	–	–
[1], 322 K, w2 = 0.8921	635.4	–	–
[1], 326.4 K, w2 = 0.797	–	–	0.21
[1], 326.5 K, w2 = 0.614	–	–	0.53
[1], 326.5 K, w2 = 0.6824	–	–	0.36
[1], 326.6 K, w2 = 0.4998	–	–	1
[1], 326.6 K, w2 = 0.614	846.9	–	–
[1], 326.6 K, w2 = 0.797	708.4	–	–
[1], 326.7 K, w2 = 0.4998	921.4	–	–
[1], 326.7 K, w2 = 0.6824	795	–	–
[1], 331 K, w2 = 0.8921	–	–	0.13
[1], 331.1 K, w2 = 0.797	–	–	0.2
[1], 331.2 K, w2 = 0.614	–	–	0.51
[1], 331.2 K, w2 = 0.6824	–	–	0.35
[1], 331.4 K, w2 = 0.4998	–	–	0.92
[1], 331.4 K, w2 = 0.614	843.1	–	–
[1], 331.4 K, w2 = 0.6824	792	–	–
[1], 331.4 K, w2 = 0.797	701	–	–
[1], 331.5 K, w2 = 0.4998	917.4	–	–
[1], 335.7 K, w2 = 0.797	–	–	0.19
[1], 336 K, w2 = 0.6824	–	–	0.33
[1], 336.1 K, w2 = 0.614	–	–	0.47
[1], 336.2 K, w2 = 0.614	838.1	–	–
[1], 336.2 K, w2 = 0.797	692.7	–	–
[1], 336.3 K, w2 = 0.4998	913.3	–	0.87
[1], 336.3 K, w2 = 0.6824	783.1	–	–
[1], 340.6 K, w2 = 0.797	–	–	0.18
[1], 340.8 K, w2 = 0.614	–	–	0.46
[1], 340.8 K, w2 = 0.6824	–	–	0.31
[1], 341 K, w2 = 0.797	686.7	–	–
[1], 341.1 K, w2 = 0.4998	–	–	0.82
[1], 341.1 K, w2 = 0.614	832.6	–	–
[1], 341.1 K, w2 = 0.6824	775.2	–	–
[1], 341.2 K, w2 = 0.4998	909.2	–	–
[1], 345.6 K, w2 = 0.614	–	–	0.43
[1], 345.9 K, w2 = 0.4998	–	–	0.77
[1], 346 K, w2 = 0.4998	905.1	–	–
[1], 346 K, w2 = 0.614	826.5	–	–
[1], 350.2 K, w2 = 0.614	–	–	0.4
[1], 350.4 K, w2 = 0.4998	–	–	0.73
[1], 350.9 K, w2 = 0.4998	900.9	–	–
[1], 359.7 K, w2 = 0.4998	–	–	0.65
[1], 369.5 K, w2 = 0.4998	–	–	0.58
[2], 304.17 K, w2 = 0.4992	–	63.48	–
[2], 304.17 K, w2 = 0.5988	–	72.55	–
[2], 304.17 K, w2 = 0.7013	–	76.74	–
[2], 304.17 K, w2 = 0.9	–	81.53	–
[2], 314.14 K, w2 = 0.4992	–	64.61	–
[2], 314.14 K, w2 = 0.5988	–	72.3	–
[2], 314.14 K, w2 = 0.7013	–	77.73	–
[2], 314.14 K, w2 = 0.7961	–	81.14	–
[2], 314.14 K, w2 = 0.9	–	81.93	–
[2], 324.11 K, w2 = 0.4992	–	64.64	–
[2], 324.11 K, w2 = 0.5988	–	72.13	–
[2], 324.11 K, w2 = 0.7013	–	77.86	–
[2], 324.11 K, w2 = 0.7961	–	82.16	–
[2], 324.11 K, w2 = 0.9	–	83.77	–
[2], 334.09 K, w2 = 0.4992	–	65.26	–
[2], 334.09 K, w2 = 0.5988	–	72.48	–
[2], 334.09 K, w2 = 0.7013	–	78.17	–
[2], 334.09 K, w2 = 0.7961	–	82.8	–
[2], 334.09 K, w2 = 0.9	–	85.93	–
[2], 344.07 K, w2 = 0.4992	–	65.94	–
[2], 344.07 K, w2 = 0.5988	–	73.3	–
[2], 344.07 K, w2 = 0.7013	–	79.2	–
[2], 354.06 K, w2 = 0.4992	–	67.29	–
[2], 354.06 K, w2 = 0.5988	–	74.12	–
[2], 364.15 K, w2 = 0.4992	–	70.3	–
